From patent publication US20230226056A1, “[…] FOR PREVENTING OR TREATING SARS-COV-2 INFECTIONS” (priority 2020, published 2023)
“Also recorded” adds a separate entry of the source.

Tests used:
[1] = Maximum solubility of ectoine; assay type: physicochemical
Text: For a maximally saturated solute solution, concentrations that are just below the solubility limit of the respective solute are preferred. Such a highly concentrated solute solution can be used as a starting solution to prepare the solution required on site. In this way, individual solutions can be diluted depending on the administration required, the patient's condition (existing conditions, age, etc.) and/or desired therapy. This is especially beneficial when not differently concentrated solutions can be stored.

[2] = Osmolarity of ectoine solution; assay type: physicochemical
Text: An isotonic NaCl solution of 0.9% has an osmolar activity of 286 mOsmol/kg H2O. A 2% ectoine solution has an osmolarity of 147 mOsmol/kg H2O. An isotonic ectoine solution thus has a concentration of 3.89%.

Oral toxicity = assay type: in vivo
[3] = biological target: T1, SARS-CoV-2 Spike S1 protein binding to ACE2-expressing A549 cells (Severe acute respiratory syndrome coronavirus 2, UniProt P0DTC2); assay type: cell-based
T1 construct: the HIS-tagged SARS-Cov2-S1 protein is added to each tube; ACE2: endogenous in A549 cells (ATCC)

[4] = Plasma concentration after oral ectoine in rats; assay type: in vivo; conditions: 1000 mg/kg

SMILES	maximum solubility ([1]; 25° C.)	maximum solubility ([1]; 40° C.)	osmolarity ([2]; 2% ectoine solution) [mOsmol/kg H2O]	concentration of an isotonic ectoine solution ([2]; relative to isotonic 0.9% NaCl, 286 mOsmol/kg H2O) [%]	NOAL (Oral toxicity) [mg/kg body weight/day]	Median (background-subtracted fluorescence, Mann Whitney test) [3]	bound viral Cov2 S1 protein on the cell surface [3]	fluorescence of the Cov2 S1 protein bound to A549 cells [3]	inhibition of the binding of the Cov2 S1 protein to A549 cells [3]	inhibitory effect on Cov2 S1 binding [3]	plasma concentration [4] [µg/mL]	effect on Cov2 S1 protein binding to A549 cells [3]	effect on the binding between Cov2 S1 and the A549 cells [3]
CC1=N[C@H](C(=O)O)CCN1 [ectoine, (4S)-2-Methyl-1,4,5,6-tetrahydropyrimidine-4-carbon acid]	about 550 g/L	about 620 g/L	147	3.89	2000	0.3050, n = 4	less or no bound viral Cov2 S1 protein	lower fluorescence	complete inhibition; also recorded: positive effect	significant	99		
CC(=O)NCC[C@H](N)C(=O)O [NADA, Nγ-Acetyl-L-2,4-diaminobutyric acid, reference compound]						1.820, n = 4			no inhibition; also recorded: little inhibition; also recorded: no significant effect	comparable to untreated cells		no effect	No effect
